Like-named read-outs stand apart in the source and are kept apart here. Bounds are passed on as bounds.

These results are taken from article PMC12531613, “Synthesis and Biological Evaluation of Novel 2‐(Piperidin‐4‐yl)‐1,2,3,4‐tetrahydroisoquinoline and 2‐(Piperidin‐4‐yl)decahydroisoquinoline Antimycotics” (Archiv Der Pharmazie, 2025).

In this assay the test system is Yarrowia lipolytica. Put plainly: MIC100 microdilution assay against Yarrowia lipolytica. It is filed as cell-based. The protocol: In previous research we found a good correlation between MIC values against Yarrowia lipolytica and pathogenic Candida species.
Determination of MICs against Yarrowia lipolytica (DSMZ, Braunschweig, Germany) was carried out according to lit. Yarrowia lipolytica was cultivated in AC‐agar (Sigma Aldrich). Concentration of yeast cells was determined by photometer and adjusted to a turbidity of 0.5 according to McFarland standard at 600 nm. All substances were dissolved in DMSO or methanol.
Determination of MICs (minimal inhibitory concentration) against Yarrowia lipolytica was carried out according to Lit.^[13] Concentration of yeast cells was determined by photometer and adjusted to a turbitity of 0.5 according to McFarland Standard.
For orientation: In broth dilution the organism is exposed to a series of concentrations in liquid medium.

Setting [1] is: microdilution, 48 h, 25°C, 600 nm, read-out: MIC100.
Setting [2] is: 48 h, read-out: Biological Activity MIC Yarrowia lipolytica.

Regarding `C1CC[C@H]2CN(C3CCNCC3)CC[C@@H]2C1` (racemic) [4c, (±)‐2‐(Piperidin‐4‐yl)decahydroisoquinoline], the MIC was greater than 100 µg/mL under setting [1] and greater than 100 µg/mL (supplement table, MIC100, 48 h, 25°C, 600 nm, read-out: Biological Activity MIC Yarrowia lipolytica).
In the case of `CCCC(=O)N1CCC(N2CCC3CCCCC3C2)CC1` (racemic) [5g, (±)‐1‐[4‐(Octahydroisoquinolin‐2(1H)‐yl)‐piperidin‐1‐yl]‐butan‐1‐one], the MIC was greater than 100 µg/mL under setting [2] and greater than 100 µg/mL (48 h, read-out: MIC100).
In the case of `CCCCCCCC(=O)N1CCC(N2CCC3CCCCC3C2)CC1` (racemic) [5h, (±)‐1‐[4‐(Octahydroisoquinolin‐2(1H)‐yl)piperidin‐1‐yl]octan‐1‐one], the MIC is greater than 100 µg/mL under setting [2] and greater than 100 µg/mL (48 h, read-out: MIC100).
As for `CCCCCCCCCCCC(=O)N1CCC(N2CCC3CCCCC3C2)CC1` (racemic) [5i, (±)‐1‐[4‐(Octahydroisoquinolin‐2(1H)‐yl)‐piperidin‐1‐yl]‐dodecan‐1‐one], the MIC reads like this: under setting [2], greater than 100 µg/mL; (48 h, read-out: MIC100) greater than 100 µg/mL.
Turning to `CC(C)(C)OC(=O)N1CCC(N2CCc3ccccc3C2)CC1` [3a, tert‐Butyl 4‐(3,4‐dihydroisoquinolin‐2(1H)‐yl)piperidine‐1‐carboxylate], the MIC by setting is: under setting [2], greater than 100 µg/mL; (48 h, read-out: MIC100) greater than 100 µg/mL.
In the case of `COc1cc2c(cc1OC)CN(C1CCN(C(=O)OC(C)(C)C)CC1)CC2` [3b, tert‐Butyl 4‐(6,7‐dimethoxy‐3,4‐dihydroisoquinolin‐2(1H)‐yl)piperidine‐1‐carboxylate], the MIC reads like this: under setting [2], greater than 100 µg/mL; (48 h, read-out: MIC100) greater than 100 µg/mL.
For the compound `CC(C)(C)OC(=O)N1CCC(N2CCC3CCCCC3C2)CC1` (stereo not drawn) [3c, tert‐Butyl 4‐(octahydroisoquinolin‐2(1H)‐yl)piperidine‐1‐carboxylate], the MIC is, setting by setting: under setting [2], greater than 100 µg/mL; (48 h, read-out: MIC100) greater than 100 µg/mL.
Consider `COc1cc2c(cc1OC)CN(C1CCNCC1)CC2` [4b, 6,7‐Dimethoxy‐2‐(piperidin‐4‐yl)‐1,2,3,4‐tetrahydroisoquinoline], for which the MIC by setting is: under setting [2], greater than 100 µg/mL; (48 h, read-out: MIC100) greater than 100 µg/mL.
For `CCCCCCCC(=O)N1CCC(N2CCc3ccccc3C2)CC1` [5b, 1‐[4‐(3,4‐Dihydroisoquinolin‐2(1H)‐yl)piperidin‐1‐yl]octan‐1‐one], the MIC under setting [2] was greater than 100 µg/mL and the MIC (48 h, read-out: MIC100) was greater than 100 µg/mL.
In the case of `CCCC(=O)N1CCC(N2CCc3cc(OC)c(OC)cc3C2)CC1` [5d, 1‐[4‐(6,7‐Dimethoxy‐3,4‐dihydroisoquinolin‐2(1H)‐yl)‐piperidin‐1‐yl]butan‐1‐one], the MIC under setting [2] is greater than 100 µg/mL and the MIC (48 h, read-out: MIC100) is greater than 100 µg/mL.
`CCCCCCCC(=O)N1CCC(N2CCc3cc(OC)c(OC)cc3C2)CC1` [5e, 1‐[4‐(6,7‐Dimethoxy‐3,4‐dihydroisoquinolin‐2(1H)‐yl)‐piperidin‐1‐yl]‐octan‐1‐one]: the MIC is greater than 100 µg/mL under setting [2] and greater than 100 µg/mL (48 h, read-out: MIC100).
`CCCCCCCCCCCC(=O)N1CCC(N2CCc3cc(OC)c(OC)cc3C2)CC1` [5f, 1‐[4‐(6,7‐Dimethoxy‐3,4‐dihydroisoquinolin‐2(1H)‐yl)piperidin‐1‐yl]dodecan‐1‐one]: the MIC by setting is: under setting [2], greater than 100 µg/mL; (48 h, read-out: MIC100) greater than 100 µg/mL.
On to `CCCCCCCCN1CCC(N2CCc3ccccc3C2)CC1` [6b, 2‐(1‐Octylpiperidin‐4‐yl)‐1,2,3,4‐tetrahydroisoquinoline], for which the MIC runs as follows: under setting [2], 100 µg/mL; (48 h, read-out: MIC100) 100 µg/mL.
For the compound `c1ccc(CN2CCC(N3CCC4CCCCC4C3)CC2)cc1` (stereo not drawn) [7c, 2‐(1‐Benzylpiperidin‐4‐yl)decahydroisoquinoline], the MIC was greater than 100 µg/mL under setting [2] and greater than 100 µg/mL (48 h, read-out: MIC100).
With `Clc1ccccc1C(c1ccccc1)(c1ccccc1)n1ccnc1` [Clotrimazole, reference compound], the MIC under setting [1] was 0.4 µg/mL and the MIC (microdilution, same value given in µM, read-out: MIC100 (molar value in brackets)) stood at 1.2 µM.
